Experimental data published in US8802678B2, “Carbonylated (aza) cyclohexanes as dopamine D3 receptor ligands” (Bioprojet, priority 2006, dated 2014).

Row | Structure (SMILES) | melting point
1 | N#CCC(=O)N[C@H]1CC[C@H](CCN2CC=C(c3ccccc3F)CC2)CC1 | 156 °C
2 | CCc1cccc(N2CCN(CC[C@H]3CC[C@H](NC(=O)CCCC#N)CC3)CC2)c1.Cl | 205 °C
3 | CC(=O)CN1CCC(CCN2CC=C(c3cccc(C(F)(F)F)c3)CC2)CC1.Cl.Cl | 268 °C
4 | Cl.Cl.O=C(CN1CCC(CCN2CCN(c3cccc(C(F)(F)F)c3)CC2)CC1)c1ccc(F)c(F)c1 | 220 °C
5 | CC(=O)CN1CCC(CCN2CCN(c3cc(C)c(F)cc3Cl)CC2)CC1.Cl.Cl | 344 °C
6 | CC(=O)CN1CCC(CCN2CCN(c3cc(C)cc(Cl)c3)CC2)CC1.Cl.Cl | 300 °C
7 | CC(=O)CN1CCC(CCN2CCN(c3cc(Cl)ccc3Cl)CC2)CC1.Cl.Cl | 172 °C
8 | CC(=O)CN1CCC(CCN2CC=C(c3ccccc3)CC2)CC1 | 80 °C
9 | CC(=O)CN1CCC(CCN2CCN(c3ccc(C)c(F)c3)CC2)CC1.Cl.Cl | 276 °C
10 | COc1ccc(Cl)c(N2CCN(CCC3CCN(CC(C)=O)CC3)CC2)c1.Cl.Cl | 263 °C
11 | CC(=O)CN1CCC(CCN2CCN(c3cccc(Oc4ccccc4)c3)CC2)CC1.Cl.Cl | 241 °C
12 | CC(=O)CN1CCC(CCN2CCN(c3ccc(Cl)cc3)CC2)CC1.Cl.Cl | 277 °C
13 | CC(=O)CN1CCC(CCN2CCN(c3cccc(C(C)C)c3)CC2)CC1.Cl.Cl | 252 °C
14 | CC(=O)CN1CCC(CCN2CCN(c3cc(Cl)c(Cl)cc3Cl)CC2)CC1.Cl.Cl | 261 °C
15 | Cc1cccc(C2=CCN(CC[C@H]3CC[C@H](NC(=O)C4=CCCC4)CC3)CC2)c1C#N | 183 °C
16 | CC(=O)CN1CCC(CCN2CC=C(c3cc(F)cc(C(F)(F)F)c3)CC2)CC1.Cl.Cl | 287 °C
17 | N#CCC(=O)N[C@H]1CC[C@H](CCN2CC=C(c3cc(F)cc(C(F)(F)F)c3)CC2)CC1 | 163 °C
18 | COCCCC(=O)N[C@H]1CC[C@H](CCN2CC=C(c3cccc(C(F)(F)F)c3)CC2)CC1 | 145 °C
19 | CCOCC(=O)N[C@H]1CC[C@H](CCN2CC=C(c3cccc(C(F)(F)F)c3)CC2)CC1 | 75 °C

Second part, the compound after the results:

Row | melting point | Structure (SMILES)
20 | 95 °C | Cl.N#CCCCC(=O)N1CCC(CCN2CCN(c3cccc(C(F)(F)F)c3)CC2)CC1
21 | 300 °C | CC(=O)CN1CCC(CCN2CCN(c3cccc(C(F)(F)F)c3C)CC2)CC1.Cl.Cl
22 | 281 °C | CC(=O)CN1CCC(CCN2CCN(c3cc(F)ccc3C)CC2)CC1.Cl.Cl
23 | 315 °C | CC(=O)CCCN1CCC(CCN2CCN(c3cccc(C(F)(F)F)c3)CC2)CC1.Cl.Cl
24 | 270 °C | CC(=O)CN1CCC(CCN2CCN(c3cccc(F)c3F)CC2)CC1.Cl.Cl
25 | 277 to 278 °C | COc1cc(N2CCN(CCC3CCN(CC(C)=O)CC3)CC2)cc(C(F)(F)F)c1.Cl.Cl
26 | 278 to 279 °C | CC(=O)CN1CCC(CCN2CCN(c3ccc(C(F)(F)F)cc3F)CC2)CC1.Cl.Cl
27 | 280 °C | CC(=O)CN1CCC(CCN2CCN(c3cccc4c3OCCCO4)CC2)CC1.Cl.Cl
28 | 263 °C | CC(=O)CN1CCC(CCN2CCN(c3ccc(Cl)c(C(F)(F)F)c3)CC2)CC1.Cl.Cl
29 | 260 °C | COc1ccc(C(F)(F)F)cc1N1CCN(CCC2CCN(CC(C)=O)CC2)CC1.Cl.Cl
30 | 270 °C | CCCC(=O)CN1CCC(CCN2CCN(c3cccc4c3CCC4)CC2)CC1.Cl.Cl
31 | 295 °C | CC(=O)CN1CCC(CCN2CCN(c3cc(F)cc(C(F)(F)F)c3)CC2)CC1.Cl.Cl
32 | 210 °C | Cl.N#CCCCC(=O)N1CCC(CCN2CCN(c3cccc4c3CCC4)CC2)CC1
33 | 128 °C | Cl.N#CCCC(=O)N1CCC(CCN2CCN(c3cc(Cl)cc(C(F)(F)F)c3)CC2)CC1
34 | 259 °C | CC(=O)CN1CCC(CCN2CCN(c3cc(Cl)ccc3C)CC2)CC1.Cl.Cl
35 | 206 °C | Cl.O=C(CC(F)(F)F)N1CCC(CCN2CCN(c3cccc4c3CCC4)CC2)CC1
36 | 250 °C | CC(=O)CN1CCC(CCN2CCN(c3ccccc3F)CC2)CC1.Cl.Cl
